Assay: Stress-study at 80° C. of HAL HCl with excipients, impurities by HPLC
Format: physicochemical
Set-up: key to level of impurity at relative retention time 0.8: **: An empty entry indicates no detectable levels
Settings: 20 hours, relative to a pyrazine standard
Method: In order to get an indication of the stability of HAL in the presence of various excipients, a stress-study at 80° C. was performed. 100 mg HAL HCl+300 mg excipient (Poloxamer 188, Gelucire 44/14, Gelucire mixture (44/14:50/02=[…] w/w) and Miglyol 812 N) was mixed and the result after 20 hours was analysed by HPLC. The level of each impurity was calculated relative to a pyrazine standard.

level of impurity Pyrazine: 1.77%
level of impurity at relative retention time 0.8: **
level of impurity at relative retention time 0.88: 0.46%
level of impurity at relative retention time 1.37: 0.03%
level of impurity at relative retention time 1.91: 0.35%
level of impurity at relative retention time 2.06: 0.16%
SMILES: CCCCCCOC(=O)CCC(=O)CN.Cl [HAL- HCl, Hexyl 5-aminolevulinate hydrochloride]

— patent US20150031761A1, “USE OF 5-AMINOLEVULINIC ACID AND DERIVATIVES IN A SOLID FORM FOR PHOTODYNAMIC TREATMENT AND DIAGNOSIS” (Photocure ASA, priority 2007, published 2015)
